# Legend:
# [1] = test system: HCV replicon RNA (GenBank Accession No. AJ242654); assay: HCV Replicon Assay (replicon RNA reduction and/or Fluc reporter signal); type: cell-based, Hepatitis C virus; conditions: Hepatitis C virus, 72 h, replicon-containing cells cultured with test compound for up to 3 days
# Excerpt: The lack of reliable and readily accessible cell-culture and small animal models permissive for HCV replication has limited the development of new anti-HCV agents. Self-replicating subgenomic HCV systems, termed HCV replicons, have been described and have been widely used to assess the efficacy of anti-HCV inhibitors (see Blight K J, et al., 2000, Efficient initiation of HCV RNA replication in cell culture. Science 290:1972-1974; Blight K J, et al., 2002, Highly permissive cell lines for subgenomic and genomic hepatitis C virus RNA replication. J Virol 76:13001-13014; Ikeda M, et al., 2002. Selectable subgenomic and genome-length dicistronic RNAs derived from an infectious molecular clone of the HCV-N strain of hepatitis C virus replicate efficiently in cultured Huh7 cells. J Virol 76:2997-3006; Lohmann V, et al., 1999, Replication of subgenomic hepatitis C virus RNAs in a hepatoma cell line. Science 285:110-113; Pietschmann T, et al., 2002, Persistent and transient replication of full-length hepatitis C virus genomes in cell culture. J Virol 76:4008-4021; and, Pietschmann T, et al., 2001, Characterization of cell lines carrying self-replicating hepatitis C virus RNAs. J Virol 75:1252-1264).
# As described in U.S. Pat. No. 6,630,343, HCV inhibitors are analyzed in the bicistronic replicon by quantitating replicon RNA (GenBank Accession No. AJ242654) reduction and/or the Fluc reporter signal. Replicon-containing cells may be cultured with a test compound of the present invention for up to 3 days. Interferon (IFN) is used as a positive control. In general, the replicon IC50 values shown in Table 1 represent IC50 values determined by replicon RNA reduction.
SMILES,IC50 [1] [nM],melting point [°C]
"CC(C)NS(=O)(=O)c1ccc(-c2c(C#N)c3cc(Cl)cnc3n2CC2CC2)cc1 [Cpd 1, 4-[5-chloro-3-cyano-1-(cyclopropylmethyl)-1H-pyrrolo[2,3-b]pyridin-2-yl]-N-(propan-2-yl)benzenesulfonamide]",< 500,113 to 116
"COc1cnc2c(c1)c(C#N)c(-c1ccc(S(=O)(=O)NC(C)C)cc1)n2CC1CC1 [Cpd 2, 4-[3-cyano-1-(cyclopropylmethyl)-5-methoxy-1H-pyrrolo[2,3-b]pyridin-2-yl]-N-(propan-2-yl)benzenesulfonamide]",< 500,151 to 153
"COc1ccc2c(n1)c(C#N)c(-c1ccc(NS(=O)(=O)C(C)C)cc1)n2CC1CC1 [Cpd 3, N-{4-[3-cyano-1-(cyclopropylmethyl)-5-methoxy-1H-pyrrolo[3,2-b]pyridin-2-yl]phenyl}propane-2-sulfonamide]",< 500,230 to 232
"CC(C)NS(=O)(=O)c1ccc(-c2c(C#N)c3cc(F)cnc3n2CC2CC2)cc1 [Cpd 4, 4-[3-cyano-1-(cyclopropylmethyl)-5-fluoro-1H-pyrrolo[2,3-b]pyridin-2-yl]-N-(propan-2-yl)benzenesulfonamide]",2000 to 5000,162 to 165
"Cc1ccc2c(C#N)c(-c3ccc(S(=O)(=O)NC(C)C)cc3)n(CC3CC3)c2n1 [Cpd 5, 4-[3-cyano-1-(cyclopropylmethyl)-6-methyl-1H-pyrrolo[2,3-b]pyridin-2-yl]-N-(propan-2-yl)benzenesulfonamide]",< 500,175 to 177
"CC(C)NS(=O)(=O)c1ccc(-c2c(C#N)c3cc(Cl)cnc3n2C2CCC2)cc1 [Cpd 6, 4-(5-chloro-3-cyano-1-cyclobutyl-1H-pyrrolo[2,3-b]pyridin-2-yl)-N-(propan-2-yl)benzenesulfonamide]",< 500,172 to 175
"CC(C)NS(=O)(=O)c1ccc(-c2c(C#N)c3cccnc3n2C2CCC2)cc1 [Cpd 7, 4-(3-cyano-1-cyclobutyl-1H-pyrrolo[2,3-b]pyridin-2-yl)-N-(propan-2-yl)benzenesulfonamide]",500 to 2000,198 to 200
"CC1(NS(=O)(=O)c2ccc(-c3c(C(N)=O)c4cc(Cl)cnc4n3C3CCC3)nc2)CC1 [Cpd 366, 5-chloro-1-cyclobutyl-2-{5-[(1-methylcyclopropyl)sulfamoyl]pyridin-2-yl}-1H-pyrrolo[2,3-b]pyridine-3-carboxamide]",< 500,–
"C[C@H](NS(=O)(=O)c1cnc(-c2c(C(N)=O)c3cccnc3n2C2CCC2)nc1)C(F)(F)F [Cpd 367, 1-cyclobutyl-2-(5-{[(2S)-1,1,1-trifluoropropan-2-yl]sulfamoyl}pyrimidin-2-yl)-1H-pyrrolo[2,3-b]pyridine-3-carboxamide]",2000 to 5000,–
"CC(C)(C)NS(=O)(=O)c1ccc(-c2c(C#N)c3cc(F)cnc3n2C2CCC2)cc1 [Cpd 369, N-tert-butyl-4-(3-cyano-1-cyclobutyl-5-fluoro-1H-pyrrolo[2,3-b]pyridin-2-yl)benzenesulfonamide]",500 to 2000,–
"C[C@H](NS(=O)(=O)c1ccc(-c2c(C#N)c3cc(S(C)(=O)=O)cnc3n2C2CCC2)nc1)C(F)(F)F [Cpd 370, 6-[3-cyano-1-cyclobutyl-5-(methylsulfonyl)-1H-pyrrolo[2,3-b]pyridin-2-yl]-N-[(2S)-1,1,1-trifluoropropan-2-yl]pyridine-3-sulfonamide]",< 500,–
"CC(C)(NS(=O)(=O)c1ccc(-c2c(C(N)=O)c3cc(C4CC4)cnc3n2C2CCC2)cc1)C(F)(F)F [Cpd 372, 1-cyclobutyl-5-cyclopropyl-2-{4-[(1,1,1-trifluoro-2-methylpropan-2-yl)sulfamoyl]phenyl}-1H-pyrrolo[2,3-b]pyridine-3-carboxamide]",< 500,–
"NC(=O)c1c(-c2ccc(S(=O)(=O)NC3(C(F)(F)F)CC3)cn2)n(C2CCC2)c2ncc(C3CC3)cc12 [Cpd 374, 1-cyclobutyl-5-cyclopropyl-2-(5-{[1-(trifluoromethyl)cyclopropyl]sulfamoyl}pyridin-2-yl)-1H-pyrrolo[2,3-b]pyridine-3-carboxamide]",< 500,–
"CC(C)(C)NS(=O)(=O)c1ccc(-c2c(C(N)=O)c3cc(C4CC4)cnc3n2C2CCC2)cc1 [Cpd 375, 2-[4-(tert-butylsulfamoyl)phenyl]-1-cyclobutyl-5-cyclopropyl-1H-pyrrolo[2,3-b]pyridine-3-carboxamide]",< 500,–
"CCc1cnc2c(c1)c(C(N)=O)c(-c1ccc(S(=O)(=O)NC3(C(F)(F)F)CC3)cn1)n2C1CCC1 [Cpd 380, 1-cyclobutyl-5-ethyl-2-(5-{[1-(trifluoromethyl)cyclopropyl]sulfamoyl}pyridin-2-yl)-1H-pyrrolo[2,3-b]pyridine-3-carboxamide]",< 500,–
"CCc1cnc2c(c1)c(C(N)=O)c(-c1ccc(S(=O)(=O)NC(C)(C)C)cc1)n2C1CCC1 [Cpd 381, 2-[4-(tert-butylsulfamoyl)phenyl]-1-cyclobutyl-5-ethyl-1H-pyrrolo[2,3-b]pyridine-3-carboxamide]",< 500,–
"CCc1cnc2c(c1)c(C(N)=O)c(-c1ccc(S(=O)(=O)NC(C)(C)C)cn1)n2C1CCC1 [Cpd 382, 2-[5-(tert-butylsulfamoyl)pyridin-2-yl]-1-cyclobutyl-5-ethyl-1H-pyrrolo[2,3-b]pyridine-3-carboxamide]",500 to 2000,–
"CSc1cnc2c(c1)c(C(=O)O)c(-c1ccc(S(=O)(=O)N[C@@H](C)C(F)(F)F)cn1)n2C1CCC1 [Cpd 386, 1-cyclobutyl-5-(methylsulfanyl)-2-(5-{[(2S)-1,1,1-trifluoropropan-2-yl]sulfamoyl}pyridin-2-yl)-1H-pyrrolo[2,3-b]pyridine-3-carboxylic acid]",500 to 2000,–
"CSc1cnc2c(c1)c(C(N)=O)c(-c1ccc(S(=O)(=O)NC3(C(F)(F)F)CC3)cc1)n2C1CCC1 [Cpd 389, 1-cyclobutyl-5-(methylsulfanyl)-2-(4-{[1-(trifluoromethyl)cyclopropyl]sulfamoyl}phenyl)-1H-pyrrolo[2,3-b]pyridine-3-carboxamide]",< 500,–
"CSc1cnc2c(c1)c(C(=O)O)c(-c1ccc(S(=O)(=O)NC3(C(F)(F)F)CC3)cc1)n2C1CCC1 [Cpd 390, 1-cyclobutyl-5-(methylsulfanyl)-2-(4-{[1-(trifluoromethyl)cyclopropyl]sulfamoyl}phenyl)-1H-pyrrolo[2,3-b]pyridine-3-carboxylic acid]",500 to 2000,–
"CNc1cnc2c(c1)c(C#N)c(-c1ccc(S(=O)(=O)N[C@@H](C)C(F)(F)F)cn1)n2C1CCC1 [Cpd 394, 6-[3-cyano-1-cyclobutyl-5-(methylamino)-1H-pyrrolo[2,3-b]pyridin-2-yl]-N-[(2S)-1,1,1-trifluoropropan-2-yl]pyridine-3-sulfonamide]",< 500,–
"N#Cc1c(-c2ccc(S(=O)(=O)NC3(C(F)(F)F)CC3)cc2)n(C2CCC2)c2ncc(C(F)(F)F)cc12 [Cpd 397, 4-[3-cyano-1-cyclobutyl-5-(trifluoromethyl)-1H-pyrrolo[2,3-b]pyridin-2-yl]-N-[1-(trifluoromethyl)cyclopropyl]benzenesulfonamide]",< 500,–
"COc1cnc2c(c1)c(C(N)=O)c(-c1ccc(S(=O)(=O)NC3(C)CC3)cn1)n2C1CCCC1 [Cpd 410, 1-cyclopentyl-5-methoxy-2-{5-[(1-methylcyclopropyl)sulfamoyl]pyridin-2-yl}-1H-pyrrolo[2,3-b]pyridine-3-carboxamide]",500 to 2000,–
"CC(C)(C)S(=O)(=O)Nc1ccc(-c2c(C(N)=O)c3cc(C(F)(F)F)cnc3n2C2CCCCC2)cc1 [Cpd 445, 2-{4-[(tert-butylsulfonyl)amino]phenyl}-1-cyclohexyl-5-(trifluoromethyl)-1H-pyrrolo[2,3-b]pyridine-3-carboxamide]",< 500,–
"[C-]#[N+]c1cnc(-n2c(-c3ccc(S(=O)(=O)N[C@@H](C)C(F)(F)F)cn3)c(C#N)c3cc(C)cnc32)s1 [Cpd 451, 6-[3-cyano-1-(5-isocyano-1,3-thiazol-2-yl)-5-methyl-1H-pyrrolo[2,3-b]pyridin-2-yl]-N-[(2S)-1,1,1-trifluoropropan-2-yl]pyridine-3-sulfonamide]",< 500,–
"CC(C)(NS(=O)(=O)c1ccc(-c2c(C#N)c3cc(C(F)F)cnc3n2C2CCC2)nc1)C(F)(F)F [Cpd 456, 6-[3-cyano-1-cyclobutyl-5-(difluoromethyl)-1H-pyrrolo[2,3-b]pyridin-2-yl]-N-(1,1,1-trifluoro-2-methylpropan-2-yl)pyridine-3-sulfonamide]",< 500,–
"N#Cc1c(-c2ccc(S(=O)(=O)NC3(C(F)(F)F)CC3)cn2)n(C2CCC2)c2ncc(C(F)F)cc12 [Cpd 457, 6-[3-cyano-1-cyclobutyl-5-(difluoromethyl)-1H-pyrrolo[2,3-b]pyridin-2-yl]-N-[1-(trifluoromethyl)cyclopropyl]pyridine-3-sulfonamide]",< 500,–

# From patent publication US9593108B2, “Compounds and methods for antiviral treatment” (PTC Therapeutics, Inc., priority 2009, dated 2017)
